Legend:
hCB2R [1] = biological target: T1, hCB2R (Homo sapiens, UniProt P34972); assay: [3H]CP55,940 radioligand displacement, CHO-K1 hCB2R membranes; format: binding
Procedure: CHO-K1 cells were thawed, diluted in Tris buffer (50 mM Tris [pH 7.4]) and homogenized in a 1 ml hand-held homogenizer. hCB1R and hCB2R CHO-K1 cell membranes were collected by cavitation in a pressure cell, and sedimented by ultracentrifugation. Pellets were resuspended in TME buffer (50 mM Tris, 5 mM MgCl2, 1 mM EDTA [pH 7.4]), and protein concentration was measured via the Bradford method according to the manufacturer’s directions (Bio-Rad Laboratories, Mississauga, ON). […] Radioligand binding began with the addition of CHO-K1 cell membranes (25 µg protein per sample). […] Brandel GF/B filter paper was soaked with wash buffer at 4 °C for at least 24 h. Each filter paper was washed 6 times with a 1.2 ml aliquot of Tris-binding buffer (pH 7.4), then air-dried and submerged in 5 ml of scintillation fluid (Ultima Gold XR, PerkinElmer). Liquid scintillation spectrometry was used to quantify radioactivity.

[2] = tested on: human microglial cells (HMC3); assay: IL-6 and IL-10 release (ELISA) in LPS/TNFα-stimulated HMC3 cells; format: cell-based
Procedure: The concentrations of pro-inflammatory (IL-6) and anti-inflammatory (IL-10) interleukins were determined by performing specific ELISA assays (MyBioSource, San Diego, CA, United States ) on collected culture media. Human microglial cells (HMC3) were exposed to pretreatment with test compounds for 1 h followed by stimulation with LPS (10 μg/ml)/TNFα (50 ng/ml) for 24 h. In competition experiments, the CB2R antagonist (SR144528, 1 μM) or the CB2R positive allosteric modulator (EC21a 1 or 10 μM) were administered 15 min before agonist administration.

HMC3 cells = assay: MTT assay, HMC3 cell viability; format: cell-based, human
Procedure: FIGURE 7 MTT assay performed with different concentrations of JR64a. Data represent means ± S.E.M. from n = 3 independent experiments, performed in triplicate. Statistical analysis was performed by ordinary one-way ANOVA followed by Tukey’s multiple comparison test. ^# p < 0.05 vs. control.

hCB1R = biological target: T2, hCB1R (Homo sapiens, UniProt P21554); assay: [3H]CP55,940 radioligand displacement, CHO-K1 hCB1R membranes; format: binding; conditions: % [3H]CP55,940 bound, 1 nM radioligand, 2 h
T2 construct: expressed in transfected cells; host or cells: CHO-K1 (ATCC CCL-61) stably expressing hCB1R; membranes
T2 sequence (P21554 whole entry): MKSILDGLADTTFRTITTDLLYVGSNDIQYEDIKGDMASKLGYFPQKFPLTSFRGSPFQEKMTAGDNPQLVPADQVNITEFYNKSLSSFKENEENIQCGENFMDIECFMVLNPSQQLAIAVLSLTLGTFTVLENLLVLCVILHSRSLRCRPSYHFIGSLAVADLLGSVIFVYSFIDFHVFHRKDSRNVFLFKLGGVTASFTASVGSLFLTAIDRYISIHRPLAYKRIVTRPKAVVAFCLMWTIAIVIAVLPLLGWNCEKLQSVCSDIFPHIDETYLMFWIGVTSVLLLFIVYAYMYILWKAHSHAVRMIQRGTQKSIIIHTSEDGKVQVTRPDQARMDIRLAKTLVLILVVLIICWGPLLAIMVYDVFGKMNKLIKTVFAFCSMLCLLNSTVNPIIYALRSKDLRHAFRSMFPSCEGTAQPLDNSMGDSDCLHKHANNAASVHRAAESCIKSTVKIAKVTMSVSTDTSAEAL
Procedure: CHO-K1 cells were thawed, diluted in Tris buffer (50 mM Tris [pH 7.4]) and homogenized in a 1 ml hand-held homogenizer. hCB1R and hCB2R CHO-K1 cell membranes were collected by cavitation in a pressure cell, and sedimented by ultracentrifugation. Pellets were resuspended in TME buffer (50 mM Tris, 5 mM MgCl2, 1 mM EDTA [pH 7.4]), and protein concentration was measured via the Bradford method according to the manufacturer’s directions (Bio-Rad Laboratories, Mississauga, ON). […] Radioligand binding began with the addition of CHO-K1 cell membranes (25 µg protein per sample). Assays were performed for 120 min at 37°C and stopped by the addition of ice-cold Tris binding buffer (pH 7.4), followed by vacuum filtration using a 24-well sampling manifold (Brandel Cell Harvester; Brandel Inc., Gaithersburg, MD, United States ). Brandel GF/B filter paper was soaked with wash buffer at 4 °C for at least 24 h. Each filter paper was washed 6 times with a 1.2 ml aliquot of Tris-binding buffer (pH 7.4), then air-dried and submerged in 5 ml of scintillation fluid (Ultima Gold XR, PerkinElmer). Liquid scintillation spectrometry was used to quantify radioactivity.

hCB2R [3] = biological target: T1, hCB2R; assay: DiscoveRx HitHunter inhibition of FSK-stimulated cAMP accumulation; format: cell-based
Procedure: Inhibition of FSK-stimulated cAMP accumulation was measured using the DiscoveRx HitHunter assay.

hCB2R [4] = biological target: T1, hCB2R; assay: DiscoveRx PathHunter βarrestin2 recruitment; format: cell-based
Procedure: βarrestin2 recruitment was quantified using the DiscoveRx PathHunter® assay. […] Detection solution was added to cells (DiscoveRx), and cells were incubated for 60 min at room temperature. Chemiluminescence was measured on a Cytation5 plate reader (top read, gain 200, integration time 10,000 ms).

T1 sequence (P34972 whole entry): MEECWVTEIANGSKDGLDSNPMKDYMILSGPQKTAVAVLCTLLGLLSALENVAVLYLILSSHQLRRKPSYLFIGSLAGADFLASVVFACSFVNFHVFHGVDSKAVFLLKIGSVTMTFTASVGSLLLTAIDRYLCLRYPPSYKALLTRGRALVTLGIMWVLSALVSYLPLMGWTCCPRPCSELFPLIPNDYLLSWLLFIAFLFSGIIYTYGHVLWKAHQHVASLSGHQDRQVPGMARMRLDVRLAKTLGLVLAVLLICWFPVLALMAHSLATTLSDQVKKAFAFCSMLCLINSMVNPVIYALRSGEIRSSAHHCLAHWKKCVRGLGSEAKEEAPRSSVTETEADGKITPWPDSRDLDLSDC

SMILES: Cc1c(Br)cn(CCCCCCCn2c(=O)c(C(=O)NC3CCC(C)CC3)cc3cccnc32)c(=O)c1NC(=O)C1CCCCCC1 (stereo not drawn) [JR64a, 1-(7-(5-bromo-3-(cycloheptanecarboxamido)-4-methyl-2-oxopyridin-1(2H)-yl)heptyl)-N-(4-methylcyclohexyl)-2-oxo-1,2-dihydro-1,8-naphthyridine-3-carboxamide]
- IC50 (hCB2R [1]): 0.6 nM
- hCB2R E min (% CP55,940) ± S.E.M (hCB2R [1]; % [3H]CP55,940 bound, 1 nM radioligand, 2 h): 20 ± 10.3 % CP55,940
- Anti-inflammatory properties ([2]; 10 μM, LPS/TNFα-stimulated HMC3): good anti-inflammatory properties
- Anti-inflammatory activity (IL-6 and IL-10 levels) ([2]; 10 or 25 μM, 1 h pretreatment, then LPS/TNFα 24 h): marked anti-inflammatory activity
- Anti-inflammatory activity after pretreatment with CB2R antagonist SR144528 ([2]; SR144528 1 μM 15 min before agonist, LPS/TNFα 24 h): completely abolished
- HMC3 cytotoxicity (HMC3 cells; 10 μM): no relevant HMC3 cytotoxicity
- Decrease in cell viability (HMC3 cells; 25 μM): ~10%
- Cytotoxic effects in HMC3 cells (HMC3 cells; 1 and 10 μM): no relevant cytotoxic effects
- hCB1R E min (% CP55,940) ± S.E.M (hCB1R): 104 ± 4.7 % CP55,940
- EC50 (hCB2R [3]): 8.6 nM
- Response in inhibition of FSK-stimulated cAMP accumulation (hCB2R [3]; CHO-K1 hCB2R): modest partial agonist activity
- Inhibition of cAMP E max (% CP55,940) ± S.E.M (hCB2R [3]; CHO-K1 hCB2R, 10 µM FSK, 90 min): 38 ± 0.74 % CP55,940
- EC50 (hCB2R [4]): > 10000 nM
- βarrestin2 recruitment E max (% CP55,940) ± S.E.M (hCB2R [4]; CHO-K1 hCB2R, 90 min): 45 ± 2.4 % CP55,940
- melting point: 121 °C (dec.)
